This note sets out measurements from patent publication US10358436B2, “Kinase inhibitors and method of treating cancer” (University Health Network, priority 2010, dated 2019).

Structures can show the parent of a compound that is named as a salt.

Aurora A, sequence (O14965 whole entry): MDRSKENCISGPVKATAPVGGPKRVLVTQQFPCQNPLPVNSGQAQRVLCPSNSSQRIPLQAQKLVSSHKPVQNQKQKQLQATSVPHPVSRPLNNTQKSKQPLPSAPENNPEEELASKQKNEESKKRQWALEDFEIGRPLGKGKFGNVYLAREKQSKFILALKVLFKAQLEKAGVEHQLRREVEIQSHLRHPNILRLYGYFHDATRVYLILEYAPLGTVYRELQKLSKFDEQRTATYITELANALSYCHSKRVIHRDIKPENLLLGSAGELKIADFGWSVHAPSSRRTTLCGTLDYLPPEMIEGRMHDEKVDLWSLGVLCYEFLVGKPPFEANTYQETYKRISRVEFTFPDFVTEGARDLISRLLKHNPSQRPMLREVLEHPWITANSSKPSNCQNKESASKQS

The assay concerns the target Aurora A (Homo sapiens (Human), UniProt O14965). Put plainly: Aurora A inhibition assay (Z-Lyte). Format: biochemical.
By inhibition is commonly meant how much of the control response was suppressed. Read a low inhibition as a response near the control. Turning to `COc1ccc2c(c1)[C@]1(C[C@H]1c1ccc3c(/C=C/c4ccc5c(c4)CNCC5)n[nH]c3c1)C(=O)N2` [Example A66, (1R,2S)-5′-methoxy-2-(3-((E)-2-(1,2,3,4-tetrahydroisoquinolin-7-yl)vinyl)-1H-indazol-6-yl)spiro[cyclopropane-1,3′-indolin]-2′-one 2,2,2-trifluoroacetate salt], the inhibition at 1 µM was more than 50%.
Compound `COc1ccc2c(c1)[C@]1(C[C@H]1c1ccc3c(-c4ccc(OCCN5CCCCC5)cc4)n[nH]c3c1)C(=O)N2` [Example A67, (1R,2S)-5′-methoxy-2-(3-(4-(2-(piperidin-1-yl)ethoxy)phenyl)-1H-indazol-6-yl)spiro[cyclopropane-1,3′-indolin]-2′-one 2,2,2-trifluoroacetate salt] returned an inhibition at 1 µM of less than 50%.
In turn, `COc1ccc2c(c1)[C@]1(C[C@H]1c1ccc3c(-c4ccc(OCCN5CCOCC5)cc4)n[nH]c3c1)C(=O)N2` [Example A68, (1R,2S)-5′-methoxy-2-(3-(4-(2-morpholinoethoxy)phenyl)-1H-indazol-6-yl)spiro[cyclopropane-1,3′-indolin]-2′-one 2,2,2-trifluoroacetate salt] yielded an inhibition at 1 µM of less than 50%.
As for `COc1ccc2c(c1)[C@]1(C[C@H]1c1ccc3c(-c4ccc(OCCN(C)C)cc4)n[nH]c3c1)C(=O)N2` [Example A69, (1R,2S)-2-(3-(4-(2-(dimethylamino)ethoxy)phenyl)-1H-indazol-6-yl)-5′-methoxyspiro[cyclopropane-1,3′-indolin]-2′-one 2,2,2-trifluoroacetate salt], the inhibition at 1 µM is less than 50%.
On to `COc1ccc2c(c1)[C@]1(C[C@H]1c1ccc3c(-c4ccc5c(c4)CN(C)CC5)n[nH]c3c1)C(=O)N2` [Example A70, (1R,2S)-5′-methoxy-2-(3-(2-methyl-1,2,3,4-tetrahydroisoquinolin-7-yl)-1H-indazol-6-yl)spiro[cyclopropane-1,3′-indolin]-2′-one 2,2,2-trifluoroacetate salt], for which the inhibition at 1 µM is less than 50%.
In turn, `COc1ccc2c(c1)[C@]1(C[C@H]1c1ccc3c(-c4ccc5c(c4)CNCC5)n[nH]c3c1)C(=O)N2` [Example A71, (1R,2S)-5′-methoxy-2-(3-(1,2,3,4-tetrahydroisoquinolin-7-yl)-1H-indazol-6-yl)spiro[cyclopropane-1,3′-indolin]-2′-one 2,2,2-trifluoroacetate salt] had an inhibition at 1 µM of less than 50%.
The same measure for `COc1ccc2c(c1)[C@]1(C[C@H]1c1ccc3c(/C=C/c4ccc(CN5CCCOCC5)cc4)n[nH]c3c1)C(=O)N2` [Example A73, (1R,2S)-(E)-2-(3-(4-((1,4-oxazepan-4-yl)methyl)styryl)-1H-indazol-6-yl)-5′-methoxyspiro[cyclopropane-1,3′-indolin]-2′-one 2,2,2-trifluoroacetate salt]: more than 50%; for `CN1CCc2cc(/C=C/c3n[nH]c4cc([C@@H]5C[C@@]56C(=O)Nc5ccccc56)ccc34)ccc2C1` [Example A74, (1R,2S)-2-(3-((E)-2-(2-methyl-1,2,3,4-tetrahydroisoquinolin-6-yl)vinyl)-1H-indazol-6-yl)spiro[cyclopropane-1,3′-indolin]-2′-one 2,2,2-trifluoroacetate salt]: more than 50%.
As for `COc1ccc2c(c1)[C@]1(C[C@H]1c1ccc3c(/C=C/c4ccc5c(c4)CCN(C)C5)n[nH]c3c1)C(=O)N2` [Example A75, (1R,2S)-5′-methoxy-2-(3-((E)-2-(2-methyl-1,2,3,4-tetrahydroisoquinolin-6-yl)vinyl)-1H-indazol-6-yl)spiro[cyclopropane-1,3′-indolin]-2′-one 2,2,2-trifluoroacetate salt], the figure is more than 50%; as for `CN1CCc2cc(-c3n[nH]c4cc([C@@H]5C[C@@]56C(=O)Nc5ccccc56)ccc34)ccc2C1` [Example A76, (1R,2S)-2-(3-(2-methyl-1,2,3,4-tetrahydroisoquinolin-6-yl)-1H-indazol-6-yl)spiro[cyclopropane-1,3′-indolin]-2′-one 2,2,2-trifluoroacetate salt], less than 50%; as for `CN1CCC(Oc2ccc(/C=C/c3n[nH]c4cc([C@@H]5C[C@@]56C(=O)Nc5ccccc56)ccc34)cc2)CC1` [Example A78, (1R,2S)-(E)-2-(3-(4-(1-methylpiperidin-4-yloxy)styryl)-1H-indazol-6-yl)spiro[cyclopropane-1,3′-indolin]-2′-one 2,2,2-trifluoroacetate salt], more than 50%.
The same measure for `COc1ccc2c(c1)[C@]1(C[C@H]1c1ccc3c(/C=C/c4ccc(OC5CCN(C)CC5)cc4)n[nH]c3c1)C(=O)N2` [Example A79, (1R,2S)-(E)-5′-methoxy-2-(3-(4-(1-methylpiperidin-4-yloxy)styryl)-1H-indazol-6-yl)spiro[cyclopropane-1,3′-indolin]-2′-one 2,2,2-trifluoroacetate salt]: more than 50%.
In turn, `CC(C)(c1ccc(/C=C/c2n[nH]c3cc([C@@H]4C[C@@]45C(=O)Nc4ccccc45)ccc23)cc1)N1CCOCC1` [Example A80, (1R,2S)-(E)-2-(3-(4-(2-morpholinopropan-2-yl)styryl)-1H-indazol-6-yl)spiro[cyclopropane-1,3′-indolin]-2′-one 2,2,2-trifluoroacetate salt] yielded an inhibition at 1 µM of more than 50%.
The same measure for `CN1CCC(Cc2ccc(/C=C/c3n[nH]c4cc([C@@H]5C[C@@]56C(=O)Nc5ccccc56)ccc34)cc2)CC1` [Example A81, (1R,2S)-(E)-2-(3-(4-((l-methylpiperidin-4-yl)methyl)styryl)-1H-indazol-6-yl)spiro[cyclopropane-1,3′-indolin]-2′-one 2,2,2-trifluoroacetate salt]: more than 50%.
On to `COc1ccc2c(c1)[C@]1(C[C@H]1c1ccc3c(/C=C/c4ccc(CC5CCN(C)CC5)cc4)n[nH]c3c1)C(=O)N2` [Example A82, (1R,2S)-(E)-5′-methoxy-2-(3-(4-((l-methylpiperidin-4-yl)methyl)styryl)-1H-indazol-6-yl)spiro[cyclopropane-1,3′-indolin]-2′-one 2,2,2-trifluoroacetate salt], for which the inhibition at 1 µM is more than 50%.
The same measure for `COc1ccc2c(c1)[C@]1(C[C@H]1c1ccc3c(/C=C/c4ccc(CN5CCCC5)cc4)n[nH]c3c1)C(=O)N2` [Example A83, (1R,2S)-(E)-5′-methoxy-2-(3-(4-(pyrrolidin-1-ylmethyl)styryl)-1H-indazol-6-yl)spiro[cyclopropane-1,3′-indolin]-2′-one 2,2,2-trifluoroacetate]: more than 50%; for `CN1C(=O)[C@@]2(C[C@H]2c2ccc3c(/C=C/c4ccc(N5CCNCC5)cc4)n[nH]c3c2)c2ccccc21` [Example A90, (1R,2S)-(E)-1′-methyl-2-(3-(4-(piperazin-1-yl)styryl)-1H-indazol-6-yl)spiro[cyclopropane-1,3′-indolin]-2′-one hydrochloride]: more than 50%.
As to `O=C1Nc2ccccc2[C@]12C[C@H]2c1ccc2c(/C=C/c3ccc(N4CCNCC4)cc3)n[nH]c2c1` [Example A92, (1R,2S)-(E)-2-(3-(4-(piperazin-1-yl)styryl)-1H-indazol-6-yl)spiro[cyclopropane-1,3′-indolin]-2′-one bis(2,2,2-trifluoroacetate)], the inhibition at 1 µM was more than 50%.
As for `CN1C(=O)[C@@]2(C[C@H]2c2ccc3c(/C=C/c4ccc(CN5CCCCC5)cc4)n[nH]c3c2)c2ccccc21` [Example A94, (1R,2S)-(E)-1′-methyl-2-(3-(4-(piperidin-1-ylmethyl)styryl)-1H-indazol-6-yl)spiro[cyclopropane-1,3′-indolin]-2′-one hydrochloride], the figure is more than 50%.
As for `CCN1CCN(c2ccc(-c3n[nH]c4cc([C@@H]5C[C@@]56C(=O)Nc5ccc(OC)cc56)ccc34)cc2)CC1` [Example A99, (1R,2S)-2-(3-(4-(4-ethylpiperazin-1-yl)phenyl)-1H-indazol-6-yl)-5′-methoxyspiro[cyclopropane-1,3′-indolin]-2′-one 2,2,2-trifluoroacetate], the figure is less than 50%.
As to `COc1ccc2c(c1)[C@]1(C[C@H]1c1ccc3c(-c4ccc(N5CCNCC5)cc4)n[nH]c3c1)C(=O)N2C` [Example A101, (1R,2S)-5′-methoxy-1′-methyl-2-(3-(4-(piperazin-1-yl)phenyl)-1H-indazol-6-yl)spiro[cyclopropane-1,3′-indolin]-2′-one 2,2,2-trifluoroacetate], the inhibition at 1 µM was less than 50%.
`COc1ccc2c(c1)[C@]1(C[C@H]1c1ccc3c(/C=C/c4ccc(CN5CCOCC5)cc4)n[nH]c3c1)C(=O)N2C` [Example A102, (1R,2S)-(E)-5′-methoxy-1′-methyl-2-(3-(4-(morpholinomethyl)styryl)-1H-indazol-6-yl)spiro[cyclopropane-1,3′-indolin]-2′-one hydrochloride] came in with an inhibition at 1 µM of more than 50%.
Compound `COc1ccc2c(c1)[C@]1(C[C@H]1c1ccc3c(/C=C/c4ccc(CN5CCOCC5)s4)n[nH]c3c1)C(=O)N2` [Example A105, (1R,2S)-5′-methoxy-2-(3-((E)-2-(5-(morpholinomethyl)thiophen-2-yl)vinyl)-1H-indazol-6-yl)spiro[cyclopropane-L3′-indolin]-2′-one hydrochloride] gave an inhibition at 1 µM of more than 50%.
As for `O=C1Nc2ccccc2[C@]12C[C@H]2c1ccc2c(/C=C/c3ccc(CN4CC[C@@H](F)C4)cc3)n[nH]c2c1` [Example A106, (1R,2S)-(E)-2-(3-(4-(((R)-3-fluoropyrrolidin-1-yl)methyl)styryl)-1H-indazol-6-yl)spiro[cyclopropane-1,3′-indolin]-2′-one 2,2,2-trifluoroacetate], the inhibition at 1 µM was more than 50%.
The compound `COc1ccc2c(c1)[C@]1(C[C@H]1c1ccc3c(-c4ccc5nccn5c4)n[nH]c3c1)C(=O)N2` [Example A107, (1R,2S)-2-(3-(imidazo[1,2-a]pyridin-6-yl)-1H-indazol-6-yl)-5′-methoxyspiro[cyclopropane-1,3′-indolin]-2′-one 2,2,2-trifluoroacetate] showed an inhibition at 1 µM of less than 50%.
In turn, `COc1ccc2c(c1)[C@]1(C[C@H]1c1ccc3c(-c4ccc(OCCn5ccnc5)cc4)n[nH]c3c1)C(=O)N2` [Example A108, (1R,2S)-2-(3-(4-(2-(1H-imidazol-1-yl)ethoxy)phenyl)-1H-indazol-6-yl)-5′-methoxyspiro[cyclopropane-1,3′-indolin]-2′-one 2,2,2-trifluoroacetate] yielded an inhibition at 1 µM of less than 50%.
